Patent US20120034613A1, “Apparatus and Method for Testing Relationships Between Gene Expression and Physical Appearance of Skin” (NSE Products, Inc., priority 2010, published 2012)

Tested on: EpidermFT™ Skin Model (EFT-400) full thickness skin cultures
Assay: Affymetrix GeneChip HG U133 Plus 2.0 microarray global gene expression, agent-exposed vs untreated skin cultures
Assay type: cell-based, human
[1] = probe 206026_s_at, Table 3 skin structure
[2] = probe 209126_x_at, Table 3 skin structure
[3] = probe 209792_s_at, Table 3 skin structure

## OCc1ccccc1O[C@@H]1O[C@H](CO)[C@@H](O)[C@H](O)[C@H]1O [Salicin, 2-(Hydroxymethyl)phenyl β-D-glucospyranoside]
Probe 204944_at, 0.5%, 24 hr
  Direction PTPRG: up
  Fold change PTPRG: 2.299
Probe 204990_s_at, 0.5%, 24 hr
  Direction ITGB4: down
  Fold change ITGB4: 4.527
Probe 205014_at, 0.5%, 24 hr
  Direction FGFBP1: down
  Fold change FGFBP1: 3.406
Probe 205015_s_at, 0.5%, 24 hr
  Direction TGFA: down
  Fold change TGFA: 3.134
Probe 205110_s_at, 0.5%, 24 hr
  Direction FGF13: up
  Fold change FGF13: 2.158
Probe 205128_x_at, 0.5%, 24 hr
  Direction PTGS1: up
  Fold change PTGS1: 2.327
Probe 205207_at, 0.5%, 24 hr
  Direction IL6: up
  Fold change IL6: 3.197
Probe 205266_at, 0.5%, 24 hr
  Direction LIF: up
  Fold change LIF: 3.702
Probe 205410_s_at, 0.5%, 24 hr
  Direction ATP2B4: up
  Fold change ATP2B4: 3.984
Probe 205470_s_at, 0.5%, 24 hr
  Direction KLK11: down
  Fold change KLK11: 3.318
Probe 205547_s_at, 0.5%, 24 hr
  Direction TAGLN: up
  Fold change TAGLN: 2.426
Probe 205767_at, 0.5%, 24 hr
  Direction EREG: up
  Fold change EREG: 2.487
Probe 205782_at, 0.5%, 24 hr
  Direction FGF7: up
  Fold change FGF7: 3.158
Probe 205783_at, 0.5%, 24 hr
  Direction KLK13: down
  Fold change KLK13: 3.619
Probe 205830_at, 0.5%, 24 hr
  Direction CLGN: up
  Fold change CLGN: 2.486
Probe 205900_at, 0.5%, 24 hr
  Direction KRT1: down
  Fold change KRT1: 4.141
Probe 205931_s_at, 0.5%, 24 hr
  Direction CREB5: up
  Fold change CREB5: 9.909
Probe 205992_s_at, 0.5%, 24 hr
  Direction IL15: up
  Fold change IL15: 4.326
Probe 206025_s_at, 0.5%, 24 hr
  Direction TNFAIP6: up
  Fold change TNFAIP6: 3.182
[1]
  Direction TNFAIP6: up
  Fold change TNFAIP6: 2.52
Probe 206033_s_at, 0.5%, 24 hr
  Direction DSC3: down
  Fold change DSC3: 4.676
Probe 206176_at, 0.5%, 24 hr
  Direction BMP6: up
  Fold change BMP6: 7.765
Probe 206193_s_at, 0.5%, 24 hr
  Direction CDSN: down
  Fold change CDSN: 11.11
Probe 206249_at, 0.5%, 24 hr
  Direction MAP3K13: up
  Fold change MAP3K13: 2.252
Probe 206295_at, 0.5%, 24 hr
  Direction IL18: down
  Fold change IL18: 19.31
Probe 206407_s_at, 0.5%, 24 hr
  Direction CCL13: up
  Fold change CCL13: 5.516
Probe 206429_at, 0.5%, 24 hr
  Direction F2RL1: down
  Fold change F2RL1: 2.099
Probe 206569_at, 0.5%, 24 hr
  Direction IL24: up
  Fold change IL24: 8.737
Probe 206618_at, 0.5%, 24 hr
  Direction IL18R1: up
  Fold change IL18R1: 2.865
Probe 206643_at, 0.5%, 24 hr
  Direction HAL: down
  Fold change HAL: 55.87
Probe 206806_at, 0.5%, 24 hr
  Direction DGKI: up
  Fold change DGKI: 2.74
Probe 206924_at, 0.5%, 24 hr
  Direction IL11: up
  Fold change IL11: 9.694
Probe 207008_at, 0.5%, 24 hr
  Direction IL8RB: down
  Fold change IL8RB: 11.11
Probe 207324_s_at, 0.5%, 24 hr
  Direction DSC1: down
  Fold change DSC1: 12.95
Probe 207388_s_at, 0.5%, 24 hr
  Direction PTGES: up
  Fold change PTGES: 2.768
Probe 207442_at, 0.5%, 24 hr
  Direction CSF3: up
  Fold change CSF3: 11.09
Probe 207526_s_at, 0.5%, 24 hr
  Direction IL1RL1: up
  Fold change IL1RL1: 9.09
Probe 207710_at, 0.5%, 24 hr
  Direction LCE2B: down
  Fold change LCE2B: 200.5
Probe 207720_at, 0.5%, 24 hr
  Direction LOR: down
  Fold change LOR: 32.35
Probe 208188_at, 0.5%, 24 hr
  Direction KRT9: down
  Fold change KRT9: 2.539
Probe 208539_x_at, 0.5%, 24 hr
  Direction SPRR2B: down
  Fold change SPRR2B: 5.554
Probe 208591_s_at, 0.5%, 24 hr
  Direction PDE3B: up
  Fold change PDE3B: 2.851
Probe 208962_s_at, 0.5%, 24 hr
  Direction FADS1: up
  Fold change FADS1: 2.889
Probe 209125_at, 0.5%, 24 hr
  Direction KRT6A: down
  Fold change KRT6A: 2.034
[2]
  Direction KRT6B: down
  Fold change KRT6B: 3.952
Probe 209387_s_at, 0.5%, 24 hr
  Direction TM4SF1: up
  Fold change TM4SF1: 3.187
Probe 209437_s_at, 0.5%, 24 hr
  Direction SPON1: up
  Fold change SPON1: 2.36
Probe 209563_x_at, 0.5%, 24 hr
  Direction CALM1 /// CALM2 /// CALM3: down
  Fold change CALM1 /// CALM2 /// CALM3: 2.029
Probe 209602_s_at, 0.5%, 24 hr
  Direction GATA3: down
  Fold change GATA3: 15.7
Probe 209774_x_at, 0.5%, 24 hr
  Direction CXCL2: up
  Fold change CXCL2: 7.546
Probe 209790_s_at, 0.5%, 24 hr
  Direction CASP6: down
  Fold change CASP6: 2.668
[3]
  Direction KLK10: down
  Fold change KLK10: 4.49
Probe 209873_s_at, 0.5%, 24 hr
  Direction PKP3: down
  Fold change PKP3: 4.615
Probe 210020_x_at, 0.5%, 24 hr
  Direction CALML3: down
  Fold change CALML3: 11.27
Probe 210229_s_at, 0.5%, 24 hr
  Direction CSF2: up
  Fold change CSF2: 16.55
Probe 210287_s_at, 0.5%, 24 hr
  Direction FLT1: up
  Fold change FLT1: 3.95
Probe 210619_s_at, 0.5%, 24 hr
  Direction HYAL1: down
  Fold change HYAL1: 4.538
